Assay [1] concerns plasmid DNA (H2B-GFP). The assay can be described thus: Agarose gel electrophoresis of plasmid DNA (DNA migration assay). As to conditions: 200 and 400 μM; overnight; room temperature. The assay is classed as biochemical. The procedure:
The nature of the interaction between the complexes and pure plasmid DNA was evaluated by agarose gel electrophoresis as described previously with minor modifications (21). Briefly, free ligands, copper complexes, and cisplatin (200 and 400 μM; in 20 μL total volume) were incubated overnight at room temperature with plasmid DNA (200 ng, H2B-GFP, Addgene #11680). NaN3 (final: 37.5 mM in ddH2O) was used as a ROS scavenger. Samples were run on a 1% agarose gel (100 V, 60 min). The experiments were carried out with two biological replicates, and ImageJ software was used to quantify and analyse the intensity of the bands.
In addition to thermal denaturation, we performed a cell-free DNA binding assays followed by gel electrophoresis to further investigate the nature of the interaction between the complexes and DNA. The assay relies on the fact that the relative amount of the supercoiled form of plasmid DNA will change upon the occurrence of nicks since the relaxed form migrates slower and can be easily detected on the gel. […] The ligands had little to no effect on DNA migration except L^7 (Fig. S24A). However, incubation of plasmid DNA with complexes 1 - 8 confirmed binding to DNA and changed the supercoiling status by increasing the nicked circular form (Fig. S24). […] To understand whether the induction of DNA nicks requires ROS, the samples were pre-incubated with a ROS scavenger, NaN3. […]

For assay [2], the system named is S. aureus MRSA 272123. The assay can be described thus: MIC determination. The assay is classed as cell-based, Staphylococcus aureus. The settings on record: 18 h.

With `CC(=O)[O-].O=C(NN=Cc1ccc2cccc([O-])c2n1)c1ccccc1.[Cu+2]` [Complex 1, [Cu(HL^1)(AcO)]], the “effect on plasmid DNA migration / nicking” value in assay [1] is “highest nicking efficiency”. Also, the MIC (usually the lowest concentration found to suppress growth) in assay [2] was found to be 50 µM.

For the origin of these results see PMC10072326, “Promising anticancer agents based on 8-hydroxyquinoline hydrazone copper(II) complexes” (Frontiers in Chemistry, 2023).
